Results reported in ChEMBL document CHEMBL5512652, “Mono-quinoxaline-induced DNA structural alteration leads to ZBP1/RIP3/MLKL-driven necroptosis in cancer cells” (Eur J Med Chem, 2024).
Active and inactive are the calls of the source. No cut-off for these calls is given here.

Assays:
HT-29 [1] = assay: Induction of apoptosis in human HT-29 cells assessed as late apoptotic cells at 3 uM incubated for 24 hrs by FITC/Annexin V based FACS analysis (reference value: 1.5%); format: functional
DNA [2] = assay: Induction of pBR322 plasmid DNA (unknown origin) conformational change at 2.5:1 compound:DNA ratio incubated for 4 hrs by EtBr staining based agarose gel mobility shift assay; format: nucleic-acid assay
HCT-116 [3] = assay: Induction of apoptosis in human HCT-116 cells assessed as viable cells at 2 uM incubated for 24 hrs by FITC/Annexin V based FACS analysis (reference value: 87.1%); format: functional; details: read-out: Activity
Calf thymus DNA = assay: Binding affinity to calf thymus DNA assessed as hypochromism at 1:3 DNA:compound ratio by circular dichroism method; format: nucleic-acid assay; details: Bos taurus
HCT-116 [4] = assay: Induction of cell death in human HCT-116 cells assessed as increase in ZBP1 expression at 6 uM incubated for 24 hrs by immunoblotting analysis; format: functional, cell-based
HeLa [5] = assay: Induction of cell death in human HeLa cells assessed as increase in ZBP1 expression at 6 uM incubated for 24 hrs by immunofluorescence analysis; format: functional, cell-based
HeLa [6] = assay: Induction of DNA damage in human HeLa cells assessed as strand break at 4 uM incubated for 24 hrs by comet assay; format: functional, cell-based
[7] = Selectivity ratio of IC50 for HEK293T cells to IC50 for human HCT-116 cells; format: toxicity; details: HEK293T cells versus HCT-116 cells, read-out: Ratio IC50
HCT-116 [8] = assay: Induction of necroptosis in RIP3-silenced/5-AD sensitized human HCT-116 cells assessed as increase in p-MLKL level at 3 uM preincubated with 5-AD for 3 days followed by compound addition for 24 hrs; format: functional, cell-based
HeLa [9] = assay: Induction of ROS generation in human HeLa cells incubated for 24 hrs by H2DCFDA staining based flow cytometry analysis; format: functional, cell-based; details: dose 2-6 µM
HT-29 [10] = assay: Induction of necroptosis in human HT-29 cells assessed as increase in p-RIP3 expression at 6 uM pretreated with Z-VAD for 30 mins followed by compound addition and measured after 24 hrs by Immunofluorescence confocal microscopic analysis; format: functional, cell-based
HT-29 [11] = assay: Induction of DNA damage in human HT-29 cells assessed as strand break at 6 uM incubated for 24 hrs by comet assay; format: functional, cell-based
HeLa [12] = assay: Induction of DNA damage in human HeLa cells assessed as increase in gammaH2AX expression at 2 to 4 uM incubated for 24 hrs by immunoblotting analysis; format: functional, cell-based; details: dose 2-4 µM
HeLa [13] = assay: Induction of apoptosis in human HeLa cells assessed as late apoptotic cells at 6 uM incubated for 24 hrs by FITC/Annexin V based FACS analysis (reference value: 1.7%); format: functional
HT-29 [14] = assay: Induction of apoptosis in human HT-29 cells assessed as necrotic cells at 8 uM incubated for 24 hrs by FITC/Annexin V based FACS analysis (reference value: 4.9%); format: functional
AT rich DNA = assay: Binding affinity to poly AT DNA (unknown origin) by circular dichroism method; format: nucleic-acid assay
HeLa [15] = assay: Induction of apoptosis in human HeLa cells assessed as late apoptotic cells at 2 uM incubated for 24 hrs by FITC/Annexin V based FACS analysis (reference value: 1.7%); format: functional
HT-29 [16] = assay: Induction of apoptosis in human HT-29 cells assessed as late apoptotic cells at 6 uM incubated for 24 hrs by FITC/Annexin V based FACS analysis (reference value: 1.5%); format: functional
HeLa [17] = assay: Induction of apoptosis in human HeLa cells assessed as necrotic cells at 4 uM incubated for 24 hrs by FITC/Annexin V based FACS analysis (reference value: 4.4%); format: functional
HT-29 [18] = assay: Induction of apoptosis in human HT-29 cells assessed as viable cells at 6 uM incubated for 24 hrs by FITC/Annexin V based FACS analysis (reference value: 90.8%); format: functional; details: read-out: Activity
HeLa [19] = assay: Induction of mitochondrial dysfunction in human HeLa cells assessed as clumping of mitochondria incubated for 24 hrs by JC-1 staining based confocal microscopy imaging method; format: functional, cell-based
HT-29 [20] = assay: Induction of apoptosis in human HT-29 cells assessed as viable cells at 8 uM incubated for 24 hrs by FITC/Annexin V based FACS analysis (reference value: 90.8%); format: functional; details: read-out: Activity
HT-29 [21] = assay: Induction of morphological alteration in human HT-29 cells assessed as formation of round cells at 8 uM measured after 5 to 24 hrs by microscopic analysis; format: functional, cell-based; details: time 5-24 hrs
[22] = Selectivity ratio of IC50 for human HS-5 cells to IC50 for human HCT-116 cells
HCT-116 [23] = assay: Induction of apoptosis in human HCT-116 cells assessed as increase in cleaved caspase-3 expression at 1 to 2 uM incubated for 24 hrs by immunoblotting analysis; format: functional, cell-based; details: dose 1-2 µM
HT-29 [24] = assay: Induction of necroptosis in human HT-29 cells assessed as reduction in cell survivability pretreated with Z-VAD for 30 mins followed by compound addition by MTT assay; format: functional, cell-based; details: dose 0.5-10 µM
HCT-116 [25] = assay: Induction of apoptosis in human HCT-116 cells assessed as late apoptotic cells at 4 uM incubated for 24 hrs by FITC/Annexin V based FACS analysis (reference value: 2.8%); format: functional
HeLa [26] = assay: Induction of apoptosis in human HeLa cells assessed as necrotic cells at 6 uM incubated for 24 hrs by FITC/Annexin V based FACS analysis (reference value: 4.4%); format: functional
HeLa [27] = assay: Induction of apoptosis in human HeLa cells assessed as early apoptotic cells at 4 uM incubated for 24 hrs by FITC/Annexin V based FACS analysis (reference value: 2.7%); format: functional
HCT-116 [28] = assay: Induction of apoptosis in human HCT-116 cells assessed as necrotic cells at 4 uM incubated for 24 hrs by FITC/Annexin V based FACS analysis (reference value: 4.9%); format: functional
[29] = Effect on DNA/Nucleosome complex (unknown origin) assessed as induction of histone eviction by measuring reduction in band intensity at 25 to 75 uM incubated for 4 hrs by EtBr staining based assay; details: dose 25-75 µM
HCT-116 [30] = assay: Inhibition of colony formation in human HCT-116 cells at 5 uM incubated for 10 days by crystal violet staining based assay; format: functional, cell-based; details: time 10.0 day
HeLa [31] = assay: Induction of apoptosis in human HeLa cells assessed as viable cells at 4 uM incubated for 24 hrs by FITC/Annexin V based FACS analysis (reference value: 91%); format: functional; details: read-out: Activity
HT-29 [32] = assay: Induction of necroptosis in human HT-29 cells assessed as increase in p-RIP3 expression at 3 to 8 uM pretreated with Z-VAD for 30 mins followed by compound addition and measured after 24 hrs by immunoblotting assay; format: functional, cell-based; details: dose 3-8 µM
DNA [33] = assay: Induction of pBR322 plasmid DNA (unknown origin) conformational change at 2:1 compound:DNA ratio incubated for 4 hrs by EtBr staining based agarose gel mobility shift assay; format: nucleic-acid assay
HT-29 [34] = assay: Induction of apoptosis in human HT-29 cells assessed as early apoptotic cells at 3 uM incubated for 24 hrs by FITC/Annexin V based FACS analysis (reference value: 2.6%); format: functional

Question: For `CN(C)CCCNc1nc2cc([N+](=O)[O-])ccc2nc1NCc1ccc(-c2ccccc2)cc1`, which Activity (HT-29 [1]) is on record?
Answer: 6.27%

Question: What about the Activity (DNA [2]) of the same compound?
Answer: 100%

Question: And the viability at 2 µM (HCT-116 [3])?
Answer: 53.7%

Question: What about the Activity (Calf thymus DNA) of the same compound?
Answer: Active

Question: And the Activity (HCT-116 [4])?
Answer: Active

Question: What about the Activity (HeLa [5]) of the same compound?
Answer: Active

Question: What about the Activity (HeLa [6]) of the same compound?
Answer: Active

Question: What about the selectivity ratio [7] of the same compound?
Answer: 10

Question: And the Activity (HCT-116 [8])?
Answer: Active

Question: What about the Activity (HeLa [9]) of the same compound?
Answer: Dose-Dependent Effect

Question: And the Activity (HT-29 [10])?
Answer: Active

Question: What about the Activity (HT-29 [11]) of the same compound?
Answer: Active

Question: What about the Activity (HeLa [12]) of the same compound?
Answer: Active

Question: And the Activity (HeLa [13])?
Answer: 59.1%

Question: And the Activity (HT-29 [14])?
Answer: 14.5%

Question: What about the Activity (AT rich DNA) of the same compound?
Answer: Active

Question: What about the Activity (HeLa [15]) of the same compound?
Answer: 7.8%

Question: What about the Activity (HT-29 [16]) of the same compound?
Answer: 7.35%

Question: What about the Activity (HeLa [17]) of the same compound?
Answer: 7.7%

Question: What about the viability at 6 µM (HT-29 [18]) of the same compound?
Answer: 71.3%

Question: What about the Activity (HeLa [19]) of the same compound?
Answer: Active

Question: What about the viability at 8 µM (HT-29 [20]) of the same compound?
Answer: 55.9%

Question: What about the Activity (HT-29 [21]) of the same compound?
Answer: Active

Question: What about the “Ratio IC50” value [22] of the same compound?
Answer: 10

Question: And the Activity (HCT-116 [23])?
Answer: Active

Question: What about the Activity (HT-29 [24]) of the same compound?
Answer: Dose-Dependent Effect

Question: And the Activity (HCT-116 [25])?
Answer: 20.5%

Question: What about the Activity (HeLa [26]) of the same compound?
Answer: 28.9%

Question: And the Activity (HeLa [27])?
Answer: 14.2%

Question: And the Activity (HCT-116 [28])?
Answer: 25.5%

Question: What about the Activity [29] of the same compound?
Answer: Active

Question: And the inhibition (HCT-116 [30])?
Answer: Active

Question: And the viability at 4 µM (HeLa [31])?
Answer: 63.8%

Question: And the Activity (HT-29 [32])?
Answer: Active

Question: What about the Activity (DNA [33]) of the same compound?
Answer: Active

Question: What about the Activity (HT-29 [34]) of the same compound?
Answer: 12.5%
